Results published in patent publication US12343397B2, “Drug-resistant immune cells and methods of use thereof” (Regents of the University of Minnesota, priority 2018, dated 2025).

Assays:
Tregs = assay: Survival of CRISPR/Cas9 NR3C1 knockout Tregs ± Dexamethasone; type: cell-based, human; conditions: Tregs electroporated with CRISPR/Cas9 RNP; Dexamethasone 30 μg/ml, 48 hours
Description: FIGS. 4A-4D depicts CRISPR/Cas9-mediated NR3C1 knockout in Tregs. Guide RNA candidates GR1 and GR2 were electroporated into activated Tregs as a ribonucleoprotein particle (RNP) with the Cas9 peptide. FIG. 4A depicts a schematic illustrating the culture process. FIG. 4B depicts a plot assessing the survival of Tregs after 72 h 30 μg/mL of Dexamethasone was added in the conditions as indicated. […] The NR3C1 locus was amplified from the pool of cells and indel analysis was performed by TIDE. The total gene modification rates were 35% and 44% for the pre- and post-Dexamethasone cells, respectively. The graph corresponds to the indel pattern observed in each population. […]
To determine whether the GR1 and GR2 guides were also capable of knocking out the NR3C1 locus in cultures of clinically-relevant Tregs, banked Tregs were thawed and re-stimulated with anti-CD3/28 beads in high dose IL-2 (300 U/ml). […] After 2 days, Treg cultures were harvested and were re-cultured±Dexamethasone (30 μg/ml) for an additional 48 hours (7 days total), at which time cultures were harvested, and relative survival was assessed by flow cytometry using a viability dye and counting beads. […] As such, the indel pattern using a sequence trace decomposition algorithm called TIDE (tracking of indels by decomposition) was assessed. Pre- and post-Dexamethasone exposure samples were analyzed (FIGS. 4C and 4D, respectively). […]

exon 2 of NR3C1 = assay: Surveyor nuclease assay of NR3C1 gRNA candidates in human primary T-cells; type: cell-based; conditions: Cas9 with gRNA
Description: FIGS. 3A-3D depicts the process of gene editing of NR3C1 glucocorticoid receptor by CRISPR guide RNA and Cas9. FIG. 3A depicts a schematic illustrating the process of gene transfer. T cells or Tregs were harvested and activated with CD3/CD28 beads for 48 h (fresh) or 72 h (frozen). The Neon electroporation device was used to deliver Cas9 mRNA or protein with a gene specific guide RNA. FIG. 3B depicts a schematic illustrating NR3C1 gene targeting. Four sites in exon 2 were identified and tested. Four candidates were identified. The candidates were tested using the Surveyor method. FIG. 3C depicts a schematic illustrating the Surveyor assay. Gene modified (“mutant amplicon”) and unmodified (“wild type amplicon”) are hybridized resulting in homo- or heteroduplexes. Heteroduplexes caused by pairing of gene edited and wild type sequences are cleaved by the Surveyor enzyme resulting in predictable DNA fragments.
Using these parameters the use of CRISPR/Cas9 engineering of T-cells was pursued using the experimental schema as shown in FIG. 3A. Human primary T-cells were grown in the presence of IL-2 and activated with CD3/CD28 beads for 48-72 hours. The CRISPR/Cas9 reagents used a guide RNA transcript (Synthego) and recombinant Cas9 peptide (Aldevron) that were delivered using the Neon electroporation device (ThermoFisher). […]

exon 2 of the NR3C1 gene = assay: HDR in Tregs, inside-out PCR and Sanger sequencing; type: cell-based, human; conditions: AAV-6 donor at various MOI
Description: FIGS. 5A-5C depicts homology directed repair (HDR) in Tregs. FIG. 5A depicts the gene targeting strategy. A calcineurin resistant gene co-expressed with GFP was designed such that it could be targeted to exon 2 of the NR3C1 gene resulting in a loss of 21 amino acids. The donor was encapsulated in AAV-6 particles and screening was performed using an inside/out PCR with primers (indicated by horizontal arrows) within the donor and outside of the donor at the target locus. FIG. 5B depicts gene targeting optimization. Activated Tregs were electroporated with NR3C1 Cas9 RNPs and the different indicated amounts of AAV-6 donor were added. Inside/out PCR results are shown with Sanger sequencing confirmation of the junction between the donor and the adjacent locus sequence shown in FIG. 5C.
To achieve dual drug (steroid and calcineurin inhibitor) resistance, Jurkat and primary T-cells were used to define the conditions for optimal homology directed repair (HDR). Cas9 mRNA and Cas9 RNP approaches were compared and assessed for their ability to facilitate HDR using a reporter HDR construct at the human AAVS1 locus. […] Flanking the calcineurin resistance gene were donor targeting arms homologous to the NR3C1 gene such that insertion disrupted exon 2 with concomitant deletion of 21 amino acids (FIG. 5A). […]

NR3C1 locus = assay: Indel analysis of the NR3C1 locus by TIDE; type: cell-based, human
Description: FIGS. 4A-4D depicts CRISPR/Cas9-mediated NR3C1 knockout in Tregs. Guide RNA candidates GR1 and GR2 were electroporated into activated Tregs as a ribonucleoprotein particle (RNP) with the Cas9 peptide. FIG. 4A depicts a schematic illustrating the culture process. FIG. 4B depicts a plot assessing the survival of Tregs after 72 h 30 μg/mL of Dexamethasone was added in the conditions as indicated. […] The NR3C1 locus was amplified from the pool of cells and indel analysis was performed by TIDE. The total gene modification rates were 35% and 44% for the pre- and post-Dexamethasone cells, respectively. The graph corresponds to the indel pattern observed in each population. Without being bound by any theory, it is predicted that out of frame indels (e.g., those non-divisible by three) will result in gene inactivation. Y-axis indicates the number of indels as a total percentage. X-axis indicates indels relative to unmodified (shown as bar in position 0). Deletions are shown to the left of the 0 position and each bar is between 1-10 bp away from the target site. Insertions of +1 bp are shown to the right of the 0 position. Asterisks show +1, −1, and −7 bp insertions/deletions and the frequency of these events increased with Dexamethasone exposure (comparing FIG. 4C with FIG. 4D), Dark black bars in FIGS. 4C-4D indicate editing events <0.5%.
To determine whether the GR1 and GR2 guides were also capable of knocking out the NR3C1 locus in cultures of clinically-relevant Tregs, banked Tregs were thawed and re-stimulated with anti-CD3/28 beads in high dose IL-2 (300 U/ml). On day 3, the Tregs were electroporated as above in the absence or presence of GR1 or GR2 GRISPR/Cas9 RNP and returned to culture in optimal expansion conditions. After 2 days, Treg cultures were harvested and were re-cultured±Dexamethasone (30 μg/ml) for an additional 48 hours (7 days total), at which time cultures were harvested, and relative survival was assessed by flow cytometry using a viability dye and counting beads. The dose of 30 μg/mL was identified by performing beta testing in Jurkat and primary T-cells that had undergone CRISPR/Cas9 gene modification and Dexamethasone dosing from 0-100 μg/mL. […] CRISPR/Cas9 gene repair by non-homologous endjoining results in insertions and deletions (indel) proximal to the gRNA binding site. As such, the indel pattern using a sequence trace decomposition algorithm called TIDE (tracking of indels by decomposition) was assessed. Pre- and post-Dexamethasone exposure samples were analyzed (FIGS. 4C and 4D, respectively). The frequency of out of frame indels that are predicted to result in gene inactivation in Tregs prior to Dexamethasone addition was ˜35%, which is similar to what was experimentally observed for peripheral blood T cells treated with GR2 GRISPR/Cas9 reagents (˜40%). Following culture in Dexamethasone, the frequency of indels increased to 44%. Without being bound by any theory, this indicates preferential survival of gene modified Tregs.

NR3C1 = assay: Base editing of NR3C1 in Tregs (Sanger sequencing, EditR); type: cell-based, human; conditions: Tregs electroporated with base editor mRNA and guide RNA
Description: Treg cells were base edited by electroporation of the base editor as protein or mRNA encoding said base editor, along with a guide RNA to target bases for editing with said base editor. The genomic DNA of the edited cells was then isolated and the target locus was PCR amplified. The PCR amplified locus was then sequenced by Sanger sequencing. Base conversion was observed by identifying multiple peaks at the target site. The PCR amplicon sequence data then underwent decomposition using the EDITR method to quantify base editing frequency (see, Kluesner et al. “EditR: A novel base editing quantification software using Sanger sequencing”.DOI: 10.1101/213496.2017). For FIGS. 19-22, and 24-27, the base edited sequences are marked by red open boxes.
FIG. 16 depicts a schematic showing base editing wherein the CRISPR deactivated or nicking DNA binding domain is a dCas9, and the base-editing domain is a cytidine deaminase. Base editors can be delivered as RNP complexes whereby the guide RNA may or may not be modified with phosphorothioate bonds to prevent intracellular degradation by endogenous RNAses. […] Further, the sequences at exon:intron boundaries defined as splice donors and acceptors that are required for intron excision and proper open reading frame orientation and expression were also targeted for conversion in order to disrupt splicing. […]

[1] = system: lethally irradiated BALB/c recipients of C57BL/6 (B6) donor bone marrow + T cells; assay: Steroid GVHD prophylaxis and therapy in allogeneic BMT recipients; type: in vivo, mouse; conditions: for GVHD therapy outcome / survival vs vehicle: 10 mg/kg/day day 3-28, 1.5×10^6 T cells
Description: FIG. 8 depicts steroid dose responses for GVHD prophylaxis in allogeneic BMT recipients. n=8 per group. BALB/c mice were lethally irradiated, given B6 BM+2 M T cells and steroids at the indicated doses from day 1-28. A low rapamycin dose (day 0-14, 3 times a week through day 27) was used as a comparator.
FIG. 9 depicts steroid based GVHD therapy in allogeneic BMT recipients. n=8 per group. BALB/c mice were lethally irradiated, given B6 BM+1.5 M T cells and steroids at 10 mg/kg/day day 3-28 or 4-28 as indicated.
FIG. 10 depicts steroid based GVHD therapy in allogeneic BMT recipients. n=15 (BM-Circles), 16 (Vehicle-Squares) and 25 (Prednisolone-Triangles). BALB/c mice were lethally irradiated, given B6 BM+1.5 M T cells and steroids at 10 mg/kg/day day 3-28.
To test whether gene modified (GR2-CRISPR/Cas9) or gene edited (GR2-CRISPR/Cas9/AAV-CaN mut.) Tregs have increased efficacy in vivo in the presence of glucocorticoid, how glucocorticoid (methyl-prednisolone) effects GVHD in preclinical mouse models was first determined. […] For these reasons, as well as the more logistically feasible and cost effective benefits of an allogeneic GVHD model, optimized steroid use in allogeneic recipients for GVHD prevention and therapy were first tested, and then applied to a xenogeneic model to enable testing of the human Treg product. Using lethally irradiated BALB/c recipients of C57BL/6 (B6) donor bone marrow+2×10^6 T cells, methyl-prednisolone at doses of 1, 3, and 6 mg/kg/dose were tested days 1-28 vs. rapamycin at 0.5 mg/kg/day, days 0-14 then 3×/week through day 27. The T cell dose was reduced to 1.5×10^6 and moved to GVHD therapy beginning on day 3 or day 4 (rather than day 1 prophylaxis) and compared no treatment to vehicle to prednisolone (n=8/group).
Delaying prednisolone treatment until day 4 was ineffective. Next, an experiment was performed to determine whether prednisolone at 10 mg/kg d3-28 was reproducible, and it was observed that this was the case (FIG. 10).

xeno-GVHD model = assay: Xenogeneic GVHD model (NSG mice given human PBMC); type: in vivo; conditions: 30 mg/kg, day 0-28
Description: FIGS. 11A-11D depicts the monitoring of GVHD in mice. Human PBMC (15×10^6) were injected into irradiated (50 rad) NSG mice±methylprednisolone (15 mg/kg), and signs of GVHD were monitored. FIG. 11A depicts a schematic illustration of the experiments indicating cohorts (n=7 mice each), dosing schedule, and analysis points. FIG. 11B depicts Kaplan-Meier survival curves for mice receiving PBMC only, or PBMC+prednisolone (p=0.104). FIG. 11C depicts disease progression monitored by weight loss (p=not significant). FIG. 11D depicts disease progression monitored by quantitating the number of PBMC-derived CD45+, CD4+, CD8+, and CD4+Foxp3+ T cells (p<0.03, <0.05, <0.03, and not significant, respectively). Animals were bled on day 19 for assessment.
FIGS. 12A-12D depicts the monitoring of GVHD in mice. […] FIG. 12B depicts Kaplan-Meier survival curves for mice receiving PBMC only, or PBMC+CNI (PBMC only vs. FK506 (36 mg/kg), p≤0.04). FIG. 12C depicts disease progression monitored by weight loss (p=not significant). FIG. 12D depicts disease progression monitored by quantitating the number of PBMC-derived CD45+, CD4+, CD8+, and CD4+Foxp3+ T cells (p<0.03, <0.05, <0.02, and not significant, respectively). Animals were bled on day 18 for assessment.
A follow up study has shown that xeno-GVHD pathology induced with 200 rad+1×10^7 human PBMC is more reproducible, and median survival is reduced from ˜25 days to ˜20 days.

Molecule	survival in the presence of Dexamethasone (Tregs)	nuclease activity (Surveyor DNA fragmentation products) (exon 2 of NR3C1)	HDR by inside-out PCR (exon 2 of the NR3C1 gene)	frequency of indels (NR3C1 locus; Tregs following culture in Dexamethasone) [%]	frequency of out of frame indels (NR3C1 locus; Tregs prior to Dexamethasone addition) [%]	frequency of out of frame indels (NR3C1 locus; peripheral blood T cells) [%]	total gene modification rate (NR3C1 locus; post-Dexamethasone cells, FIG. 4D) [%]	total gene modification rate (NR3C1 locus; pre-Dexamethasone cells, FIG. 4C) [%]	base editing outcome at the genetic locus (NR3C1)	GVHD therapy outcome / survival vs vehicle [1]	GVHD therapy outcome / survival vs vehicle ([1]; listed as Prednisolone)	GVHD therapy outcome ([1]; treatment delayed until day 4)	average weight (xeno-GVHD model)	survival advantage (xeno-GVHD model)	median survival (xeno-GVHD model; controls 29 days) [days]	human CD4+ and CD8+ T cells in the blood (xeno-GVHD model; day 19)
GR2: gRNA TTGAGAAGCGACAGCCAGTG (anti-sense), exon 2 of NR3C1 (guide UUGAGAAGCGACAGCCAGUG; RNA, backbone not given here; 5' and 3' phosphorothioate bonds)	significantly increased survival	exhibited the highest activity levels	HDR was observed in Tregs at each MOI	44	~35	~40	44	35	premature TAG stop codon							
GR1: gRNA AACCAAAAGTCTTCGCTGCT (anti-sense), exon 2 of NR3C1 (guide AACCAAAAGUCUUCGCUGCU; RNA, backbone not given here; 5' and 3' phosphorothioate bonds)		exhibited the highest activity levels							premature TAA stop codon							
C[C@]12C=CC(=O)C=C1CC[C@@H]1[C@@H]2[C@@H](O)C[C@@]2(C)[C@H]1CC[C@]2(O)C(=O)CO [prednisolone]										improved outcome	significantly better than vehicle control	ineffective	not significantly different than controls	did not offer a survival advantage	25	significantly more human CD4+ and CD8+ T cells
